Experimental findings from patent publication US20070293559A1, “Orally Administered Agent For Preventing Or Improving Dry Station Of Skin” (priority 2004, published 2007) are described below.

For experiment [1], the system named is HOS:HR-1 mice. The experiment is described as follows: Water content of the skin surface (SKICON-200) after oral ingestion in feed. The experiment is classed as in vivo. The settings on record: CE-2 feed containing 0.5% or 1% by weight of hydroxyproline, two to five weeks of feeding, relative to CE-2 group. Here is the method:
HOS:HR-1 mice (male, 5 weeks old, purchased from SLC Japan) were used in the test. The breeding conditions were that the room temperature was 22±2° C., the humidity was 35±15% and a feed and water were freely ingested.
Each test group consisted of 10 mice. A commercially available powder feed CE-2 (manufactured by Clea Japan) was fed to mice of the first group, CE-2 containing 0.5% by weight of trans-4-hydroxy-L-proline (hereinafter also referred to simply as hydroxyproline; manufactured by Kyowa Hakko Kogyo Co., Ltd.) was fed to mice of the second group, and CE-2 containing 1% by weight of hydroxyproline was fed to mice of the third group.
The water content of the skin surface on the back thigh upper portion of each mouse was measured with SKICON-200 (manufactured by IBS) every one week, from two weeks to five weeks after the start-up of the feeding of each feed. The measurement was conducted ten times for each mouse, and an average value of each mouse was obtained. Further, an average value of each test group was calculated.
The relative epidermal water content was calculated according to the following formula using the average value. Relative epidermal water content (%)=(A2/A1)×100 • A1: Epidermal water content of the first group • A2: Epidermal water content of the second or third group

Experiment [2] has as its system HOS:HR-1 mice. Put plainly: Transepidermal water loss (TEWL) in mice with dry skin induced by special feed. The experiment is classed as in vivo. The settings on record: for TEWL value: right rump, group average. Here is the method:
HOS:HR-1 mice (female, 4 weeks old, purchased from SLC Japan) were used in the test. The breeding conditions were that the room temperature was 22±2° C., the humidity was 50±5% and a feed and water were freely ingested.
Each test group consisted of 10 mice. A commercially available powder feed CE-2 was fed to mice of the first group, a special feed (manufactured by Nippon Nosan Kogyo K.K.) was fed to mice of the second group, the special feed containing 0.5% by weight of hydroxyproline was fed to mice of the third group, and the special feed containing 1% by weight of hydroxyproline was fed to mice of the fourth group. The dry skin was induced in HOS:HR-1 mice by feeding of the special feed (The journal of international medical research pharmacology, 32, 392-399 (2004)).
A transepidermal water loss (TEWL) value of the right rump of each mouse was measured as an index of a barrier function of stratum corneum at the start-up of the feeding of each feed, after four weeks and after six weeks using Tewameter TM210 (Courage+Khazaka electronic GmbH, Germany), and an average value of each group was calculated.

On to `O=C(O)[C@@H]1C[C@@H](O)CN1` [hydroxyproline, trans-4-hydroxy-L-proline], for which the “water content of the skin (relative epidermal water content, FIG. 1)” value with HOS:HR-1 mice [1] was “markedly improved”. The “transepidermal water loss, t-test in comparison with the second group” value with HOS:HR-1 mice [2] (fourth group (1% hydroxyproline in special feed), risk rate of less than 5% defined as significant) was “significant difference”. Besides, the TEWL value is 5.07 g/m^2/hour with HOS:HR-1 mice [2] (fourth group: special feed containing 1% by weight of hydroxyproline, feeding period 0 week (start-up)); 25.07 g/m^2/hour in the experiment on HOS:HR-1 mice [2] (fourth group: special feed containing 1% by weight of hydroxyproline, feeding period 4 weeks); 25.40 g/m^2/hour with HOS:HR-1 mice [2] (fourth group: special feed containing 1% by weight of hydroxyproline, feeding period 6 weeks); 4.99 g/m^2/hour in the experiment on HOS:HR-1 mice [2] (third group: special feed containing 0.5% by weight of hydroxyproline, feeding period 0 week (start-up)); 29.80 g/m^2/hour with HOS:HR-1 mice [2] (third group: special feed containing 0.5% by weight of hydroxyproline, feeding period 4 weeks); 29.04 g/m^2/hour in the experiment on HOS:HR-1 mice [2] (third group: special feed containing 0.5% by weight of hydroxyproline, feeding period 6 weeks). Moreover, the “barrier function of stratum corneum” value with HOS:HR-1 mice [2] (oral ingestion of hydroxyproline) is recorded as “effect of improving the barrier function of stratum corneum”. Besides, the “increase in transepidermal water loss” value in the experiment with HOS:HR-1 mice [2] (third and fourth groups (0.5% and 1% hydroxyproline in special feed) versus second group (special feed)) is on record as “suppressed dependently on the concentration”.
